Assay [1] has as its target T1, Recombinant mTOR (FRAP1) (Homo sapiens, UniProt P42345).
T1 construct: purchased Invitrogen
Put plainly: mTOR in vitro kinase assay (TR-FRET, phosphorylation of GFP-4E-BP1). The format is biochemical. The settings on record: for inhibition at 1 µM: 1 uM compound, read-out: mTOR % Inhib@1 uM; for IC50: 8 μM ATP, 400 nM GFP-4E-BP1. The procedure, abridged:
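Recombinant human mTOR with GFP-4E-BP1 substrate at 400 nM and 8 μM ATP, 1 h at room temperature, then quenched with 10 mM EDTA plus 2 nM Tb-anti-p4E-BP1 (pThr46) for 1 h. TR-FRET 520/486 nm ratio fitted against inhibitor concentration by four-parameter sigmoidal regression.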

In assay [2] the target is T2, PI3 Kinase alpha (p110 alpha/p85 alpha) (Homo sapiens, UniProt P42336).
T2 construct: purchased Invitrogen
T2 sequence (P42336 whole entry): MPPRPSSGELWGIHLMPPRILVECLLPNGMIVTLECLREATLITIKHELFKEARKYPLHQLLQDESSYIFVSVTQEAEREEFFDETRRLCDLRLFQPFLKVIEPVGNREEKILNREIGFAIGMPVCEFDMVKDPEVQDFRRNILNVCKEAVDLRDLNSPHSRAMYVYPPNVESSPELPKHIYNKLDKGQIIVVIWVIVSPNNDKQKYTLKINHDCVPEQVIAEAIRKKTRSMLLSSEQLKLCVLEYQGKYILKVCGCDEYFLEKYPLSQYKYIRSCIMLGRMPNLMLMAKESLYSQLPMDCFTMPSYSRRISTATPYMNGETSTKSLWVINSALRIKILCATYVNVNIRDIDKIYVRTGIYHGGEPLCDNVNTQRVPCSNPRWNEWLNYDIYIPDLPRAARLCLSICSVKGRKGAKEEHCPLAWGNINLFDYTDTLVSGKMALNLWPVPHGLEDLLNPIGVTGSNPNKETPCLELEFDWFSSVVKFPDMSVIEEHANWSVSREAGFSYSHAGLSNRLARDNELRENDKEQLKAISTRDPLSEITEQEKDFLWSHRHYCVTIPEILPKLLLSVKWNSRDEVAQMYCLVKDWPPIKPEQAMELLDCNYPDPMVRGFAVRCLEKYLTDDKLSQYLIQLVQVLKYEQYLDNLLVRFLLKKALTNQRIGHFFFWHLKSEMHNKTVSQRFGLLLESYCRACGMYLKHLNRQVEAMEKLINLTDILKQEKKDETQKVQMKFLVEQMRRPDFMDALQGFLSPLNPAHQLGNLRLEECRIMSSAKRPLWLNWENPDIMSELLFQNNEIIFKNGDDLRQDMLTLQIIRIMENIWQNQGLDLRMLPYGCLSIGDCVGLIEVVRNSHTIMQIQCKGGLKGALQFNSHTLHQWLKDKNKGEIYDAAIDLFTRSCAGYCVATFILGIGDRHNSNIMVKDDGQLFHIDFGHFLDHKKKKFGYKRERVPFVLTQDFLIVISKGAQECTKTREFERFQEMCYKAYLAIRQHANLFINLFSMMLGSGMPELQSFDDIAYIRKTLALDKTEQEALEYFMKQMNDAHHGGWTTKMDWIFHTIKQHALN
T2 sequence (P27986 whole entry partner): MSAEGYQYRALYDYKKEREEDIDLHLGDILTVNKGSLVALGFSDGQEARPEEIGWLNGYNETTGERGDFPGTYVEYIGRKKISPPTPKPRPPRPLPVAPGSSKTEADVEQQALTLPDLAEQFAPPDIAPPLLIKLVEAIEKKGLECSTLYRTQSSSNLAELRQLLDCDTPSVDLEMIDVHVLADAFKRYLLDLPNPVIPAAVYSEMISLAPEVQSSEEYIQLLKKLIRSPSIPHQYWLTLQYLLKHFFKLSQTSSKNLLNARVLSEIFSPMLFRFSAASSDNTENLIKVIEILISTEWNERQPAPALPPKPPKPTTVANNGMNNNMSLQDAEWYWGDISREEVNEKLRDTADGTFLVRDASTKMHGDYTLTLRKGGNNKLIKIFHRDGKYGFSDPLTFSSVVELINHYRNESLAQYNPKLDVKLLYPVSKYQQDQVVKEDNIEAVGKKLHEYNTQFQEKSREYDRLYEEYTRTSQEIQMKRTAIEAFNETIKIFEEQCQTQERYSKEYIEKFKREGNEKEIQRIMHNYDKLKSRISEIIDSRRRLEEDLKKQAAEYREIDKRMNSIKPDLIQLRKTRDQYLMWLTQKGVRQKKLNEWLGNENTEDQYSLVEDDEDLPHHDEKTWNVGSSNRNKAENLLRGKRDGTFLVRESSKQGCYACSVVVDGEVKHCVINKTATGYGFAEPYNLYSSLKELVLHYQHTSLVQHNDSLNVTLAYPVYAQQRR
Put plainly: PI3K TR-FRET assay (Transcreener ADP2). The assay is classed as biochemical. The settings on record: for IC50: PI3K alpha, 1 μM ATP, 50 μM PIP2; for inhibition at 1 µM: 1 uM compound, read-out: PI3K % Inhib@1 uM. The procedure, abridged:
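p110α/p85α with diC8 PIP2 (50 μM) and 1 μM ATP in 50 mM HEPES pH 7.4, MgCl2, CHAPS, DTT, EGTA; 1 h at room temperature. ADP detected by Transcreener ADP2 TR-FRET (665/615 nm ratio), converted to product via ADP-ATP standard curve; IC50 from four-parameter fit of % inhibition.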

This is an account of results in US9630958B2, “Triazine compounds” (Sphaera Pharma Pte. Ltd., priority 2012, dated 2017).

Molecules are shown by their SMILES.

T1 sequence (P42345 1360-2549 limits assumed): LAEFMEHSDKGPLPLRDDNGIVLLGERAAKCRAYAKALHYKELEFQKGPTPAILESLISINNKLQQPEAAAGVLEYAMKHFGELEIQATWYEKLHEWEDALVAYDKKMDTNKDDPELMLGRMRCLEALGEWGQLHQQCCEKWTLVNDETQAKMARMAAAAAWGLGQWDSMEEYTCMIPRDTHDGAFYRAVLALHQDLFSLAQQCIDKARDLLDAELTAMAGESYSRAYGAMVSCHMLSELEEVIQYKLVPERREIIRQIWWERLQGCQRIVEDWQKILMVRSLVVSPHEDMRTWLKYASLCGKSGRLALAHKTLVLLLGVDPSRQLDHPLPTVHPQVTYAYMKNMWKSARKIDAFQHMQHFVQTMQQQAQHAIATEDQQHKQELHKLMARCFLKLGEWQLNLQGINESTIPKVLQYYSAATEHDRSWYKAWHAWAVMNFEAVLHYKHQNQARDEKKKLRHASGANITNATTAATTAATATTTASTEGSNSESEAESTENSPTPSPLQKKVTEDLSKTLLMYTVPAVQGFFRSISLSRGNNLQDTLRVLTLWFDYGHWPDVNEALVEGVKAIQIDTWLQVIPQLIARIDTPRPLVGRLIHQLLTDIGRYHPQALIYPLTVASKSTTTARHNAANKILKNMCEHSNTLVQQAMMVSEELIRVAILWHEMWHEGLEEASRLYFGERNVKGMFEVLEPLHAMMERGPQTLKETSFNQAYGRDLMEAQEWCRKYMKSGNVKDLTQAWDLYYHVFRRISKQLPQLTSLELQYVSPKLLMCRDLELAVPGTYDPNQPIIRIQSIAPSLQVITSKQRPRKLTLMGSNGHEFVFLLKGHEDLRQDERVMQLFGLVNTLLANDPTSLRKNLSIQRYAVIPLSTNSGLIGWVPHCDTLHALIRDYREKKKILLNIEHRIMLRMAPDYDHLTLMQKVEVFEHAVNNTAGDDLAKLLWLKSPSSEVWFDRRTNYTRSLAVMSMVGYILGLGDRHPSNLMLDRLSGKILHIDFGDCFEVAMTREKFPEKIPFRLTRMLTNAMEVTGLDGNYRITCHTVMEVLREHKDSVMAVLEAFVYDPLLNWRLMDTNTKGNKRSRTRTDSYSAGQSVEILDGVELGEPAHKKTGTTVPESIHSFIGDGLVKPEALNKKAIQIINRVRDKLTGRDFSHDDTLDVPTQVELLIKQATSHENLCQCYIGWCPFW

`CN(C)C(=O)c1cccc(Nc2nc(-c3cnc(N)s3)nc(N3CCOCC3)n2)c1` [Compound 10200, 3-((4-(2-aminothiazol-5-yl)-6-morpholino-1,3,5-triazin-2-yl)amino)-N,N-dimethylbenzamide]: the inhibition at 1 µM in assay [1] is below 50%. In addition, the IC50 in assay [2] was below 1000 nM.

With `C[C@@H]1CN(c2nc(Oc3ccc(C(=O)N(C)C)cc3F)nc(-c3cnc4[nH]ccc4c3)n2)[C@@H](C)CO1` [Compound 10105, 4-((4-((2R,5S)-2,5-dimethylmorpholino)-6-(1H-pyrrolo[2,3-b]pyridine-5-yl)-1,3,5-triazin-2-yl)oxy)-3-fluoro-N,N-dimethylbenzamide], the IC50 in assay [1] is below 1000 nM; in assay [2], above 1000 nM.

Consider `C[C@H]1CN(c2nc(Oc3ccc(C(=O)N(C)C)cc3)nc(-c3cnc(N)s3)n2)[C@@H](C)CO1` [Compound 10077, 4-((4-(2-Aminothiazol-5-yl)-6-((2S,5S)-2,5-dimethylmorpholino)-1,3,5-triazin-2-yl)oxy)-N,N-dimethylbenzamide], for which the IC50 in assay [1] is below 1000 nM. In addition, in assay [2], the inhibition at 1 µM is above 50% and the IC50 is below 1000 nM.

Turning to `CN(C)C(=O)c1ccc(Oc2nc(-c3cnc(N)s3)nc(N3CC4CCC(C3)O4)n2)cc1` [Compound 10075, 4-((4-(2-Aminothiazol-5-yl)-6-(8-oxa-3-azabicyclo[3.2.1]octan-3-yl)-1,3,5-triazin-2-yl)oxy)-N,N-dimethylbenzamide], in assay [1], the inhibition at 1 µM is above 50% and the IC50 was below 1000 nM. Moreover, in assay [2], the inhibition at 1 µM was below 50% and the IC50 was above 1000 nM.

For `C[C@H]1COCCN1c1nc(Oc2ccc(C(=O)N(C)C)cc2)nc(-c2ccc(N)nc2)n1` [Compound 10096, (S)-4-((4-(6-Aminopyridin-3-yl)-6-(3-methylmorpholino)-1,3,5-triazin-2-yl)oxy)-N,N-dimethylbenzamide], in assay [1], the inhibition at 1 µM was above 50% and the IC50 is below 1000 nM. The compound further displayed an IC50 in assay [2] below 1000 nM.

Regarding `C[C@H]1OCCN(c2nc(Oc3ccc(C(=O)N(C)C)cc3F)nc(-c3cnc(N)s3)n2)[C@H]1C` [Compound 10052, 4-((4-(2-Aminothiazol-5-yl)-6-((2R,3S)-2,3-dimethylmorpholino)-1,3,5-triazin-2-yl)oxy)-3-fluoro-N,N-dimethylbenzamide], the IC50 in assay [1] and in assay [2] was below 1000 nM in each case. Also, the inhibition at 1 µM in assay [2] was above 50%.

`CN(C)C(=O)c1ccc(Oc2nc(-c3cnc(N)s3)nc(N3CCS(=O)(=O)CC3)n2)cc1` [Compound 10123]: the inhibition at 1 µM in assay [1] and in assay [2] was below 50% in each case.

For the compound `CN(C)C(=O)C1CCC(Oc2nc(-c3ccc4[nH]ccc4c3)nc(N3CCO[C@@H]4CCC[C@H]43)n2)CC1` (stereo partly drawn) [Compound 10150, (1S,4s)-4-(4-((4aR,7aR)-hexahydrocyclopenta[b][1,4]oxazin-4(4aH)-yl)-6-(1H-indol-5-yl)-1,3,5-triazin-2-yloxy)-N,N-dimethylcyclohexanecarboxamide], the IC50 in assay [1] was above 10000 nM. Further, the inhibition at 1 µM in assay [2] was below 50%.

Regarding `CN(C)C(=O)c1ccc(Oc2nc(-c3cnc(N)s3)nc(N3CCO[C@@H]4CCCC[C@H]43)n2)cc1` [Compound 10131, 4-(4-(2-aminothiazol-5-yl)-6-((4aR,8aR)-octahydrobenzo[b][1,4]oxazin-4-yl)-1,3,5-triazin-2-yloxy)-N,N-dimethylbenzamide], the inhibition at 1 µM in assay [1] and in assay [2] was below 50% throughout.

For `CN(C)C(=O)c1ccc(Oc2nc(-c3cnc(N)s3)nc(N3CCO[C@@H]4CCC[C@H]43)n2)cc1` [Compound 10132, 4-(4-(2-aminothiazol-5-yl)-6-((4aR,7aR)-hexahydrocyclopenta[b][1,4]oxazin-4(4aH)-yl)-1,3,5-triazin-2-yloxy)-N,N-dimethylbenzamide], in assay [1], the inhibition at 1 µM is above 50% and the IC50 was below 1000 nM. Besides, in assay [2], the inhibition at 1 µM was below 50% and the IC50 was below 1000 nM.

In the case of `CN(C)C(=O)c1ccc(Oc2nc(-c3cnc(N)s3)nc(N3CCOCC3)n2)cc1` [Compound 10017, 4-(4-(2-aminothiazol-5-yl)-6-morpholino-1,3,5-triazin-2-yloxy)-N,N-dimethylbenzamide], the IC50 in assay [1] and in assay [2] was below 1000 nM throughout.

Take `CN(C)C(=O)c1ccc(Oc2nc(-c3cnc(N)cc3C(F)(F)F)nc(N3CCOCC3)n2)cc1` [Compound 10015, 4-(4-(6-amino-4-(trifluoromethyl)pyridin-3-yl)-6-morpholino-1,3,5-triazin-2-yloxy)-N,N-dimethylbenzamide]: in assay [1], the inhibition at 1 µM was above 50% and the IC50 is below 1000 nM. The same compound had an IC50 in assay [2] below 1000 nM.

On to `C[C@@H]1CN(c2nc(Oc3ccc(C(=O)N(C)C)cc3F)nc(-c3ccc4[nH]ncc4c3)n2)[C@@H](C)CO1` [Compound 10064, 4-((4-((2R,3S)-2,5-dimethylmorpholino)-6-(1H-indazol-5-yl)-1,3,5-triazin-2-yl)oxy)3-fluoro-N,N-dimethylbenzamide], for which the IC50 in assay [1] was below 1000 nM. For the same compound, the inhibition at 1 µM in assay [2] is below 50%.

`CN(C)C(=O)c1ccc(Oc2nc(-c3cnc(N)[nH]3)nc(N3CCOCC3)n2)cc1` [Compound 10124, 4-(4-(2-amino-1H-imidazol-5-yl)-6-morpholino-1,3,5-triazin-2-yloxy)-N,N-dimethylbenzamide]: the inhibition at 1 µM in assay [1] and in assay [2] was below 50% each time.

Regarding `CN(C)C(=O)c1ccc(Oc2nc(-c3cnc(N)s3)nc(N3CCOCC3)n2)c(F)c1` [Compound 10022, 4-(4-(2-aminothiazol-5-yl)-6-morpholino-1,3,5-triazin-2-yloxy)-3-fluoro-N,N-dimethylbenzamide], in assay [1], the inhibition at 1 µM is above 50%. Moreover, the IC50 in assay [1] and in assay [2] was below 1000 nM in each case.

Regarding `CN(C)C(=O)c1ccc(Oc2nc(Nc3nccs3)nc(N3CCOCC3)n2)cc1` [Compound 10191, N,N-dimethyl-4-((4-morpholino-6-(thiazol-2-ylamino)-1,3,5-triazin-2-yl)oxy)benzamide], the inhibition at 1 µM in assay [1] was below 50%. Besides, the IC50 in assay [2] is above 1000 nM.

`C[C@@H]1COCCN1c1nc(Oc2ccc(C(=O)N(C)C)cc2F)nc(-c2ccc(N)nc2)n1` [Compound 10099, (R)-4-((4-(6-Aminopyridin-3-yl)-6-(3-methylmorpholino)-1,3,5-triazin-2-yl)oxy)-3-fluoro-N,N-dimethylbenzamide]: the IC50 in assay [1] was below 1000 nM. In addition, in assay [2], the inhibition at 1 µM is above 50% and the IC50 was below 1000 nM.

With `C[C@H]1COCCN1c1nc(Oc2ccc(C(=O)N(C)C)cc2)nc(-c2cnc(NC(=O)Nc3cccnc3)s2)n1` [Compound 10092], the IC50 in assay [1] and in assay [2] was below 1000 nM in each case. Moreover, in assay [2], the inhibition at 1 µM is below 50%.

As to `CN(C)C(=O)[C@H]1CC[C@H](Oc2nc(-c3ccc(N)nc3)nc(N3CCOCC3)n2)CC1` [Compound 10049, (1r,4r)-4-(4-(6-aminopyridin-3-yl)-6-morpholino-1,3,5-triazin-2-yloxy)-N,N-dimethylcyclohexanecarboxamide], in assay [1], the inhibition at 1 µM is above 50% and the IC50 is below 1000 nM. The compound further displayed an IC50 in assay [2] below 1000 nM.

Consider `CN(C)C(=O)[C@H]1CC[C@H](Oc2nc(-c3cnc(N)s3)nc(N3CCO[C@H]4CCC[C@@H]43)n2)CC1` [Compound 10145, (1S,4r)-4-(4-(2-aminothiazol-5-yl)-6-((4aS,7aS)-hexahydrocyclopenta[b][1,4]oxazin-4(4aH)-yl)-1,3,5-triazin-2-yloxy)-N,N-dimethylcyclohexanecarboxamide], for which the IC50 in assay [1] was above 1000 nM. Also, the inhibition at 1 µM in assay [2] was below 50%.

In the case of `CN(C)C(=O)c1ccc(Oc2nc(-c3ccc(N)nc3)nc(N3[C@@H]4CC[C@H]3COC4)n2)cc1` [Compound 10050, 4-(4-(6-aminopyridin-3-yl)-6-((1R,5S)-3-oxa-8-azabicyclo[3.2.1]octan-8-yl)-1,3,5-triazin-2-yloxy)-N,N-dimethylbenzamide], in assay [1], the inhibition at 1 µM was above 50%. The IC50 was below 1000 nM in assay [1] and above 1000 nM in assay [2].

As to `CN(C)C(=O)NC1CCN(c2nc(-c3ccc(N)nc3)nc(N3CCOCC3)n2)CC1` [Compound 10188, 3-(1-(4-(6-aminopyridin-3-yl)-6-morpholino-1,3,5-triazin-2-yl)piperidin-4-yl)-1,1-dimethylurea], in assay [1], the inhibition at 1 µM is below 50%. In assay [2], this compound gave an IC50 above 1000 nM.

As for `C[C@H]1COCCN1c1nc(Oc2ccc(C(=O)N(C)C)cc2F)nc(-c2cnc3[nH]ccc3c2)n1` [Compound 10103, (S)-3-Fluoro-N,N-dimethyl-4-((4-(3-methylmorpholino)-6-(1H-pyrrolo-[2,3-b]pyridin-5-yl)-1,3,5-triazin-2-yl)oxy)benzamide], the 50% inhibitory concentration (IC50) in assay [1] and in assay [2] was below 1000 nM in each case.

For the compound `C[C@H]1CN(c2nc(Oc3ccc(C(=O)N(C)C)cc3F)nc(-c3ccc4[nH]ncc4c3)n2)[C@@H](C)CO1` [Compound 10063, 4-((4-((25,3S)-2,5-dimethylmorpholino)-6-(1H-indazol-5-yl)-1,3,5-triazin-2-yl)oxy)-3-fluoro-N,N-dimethylbenzamide], the IC50 in assay [1] is below 1000 nM. For the same compound, the inhibition at 1 µM in assay [2] was below 50%.

On to `CC1OCCN(c2nc(Oc3ccc(C(=O)N(C)C)cc3F)nc(-c3cnc(N)s3)n2)C1C` (stereo not drawn) [Compound 10159, 4-(4-(2-aminothiazol-5-yl)-6-(2,3-dimethylmorpholino)-1,3,5-triazin-2-yloxy)-3-fluoro-N,N-dimethylbenzamide], for which the IC50 in assay [1] and in assay [2] was below 1000 nM throughout.
